Source: patent US20240101570A1 (AMGEN INC., priority 2020, published 2024)
Read-outs that look alike come from different tables or passages of the source.

Assays:
[1] = tested on: HCT116 MTAP null cells; assay: HCT116 MTAP null cell proliferation / viability (CellTiter-Glo, 6 days); type: cell-based; settings: HCT116-MTAP null, 144 h, read-out: HCT-116 MTAP null IC50
Summary of the method: (§1)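 IC50 values derive from sigmoidal dose-response fits, some with Hill slope fixed at −1 and top constrained to 100%, others from 4-parameter logistic models. They reflect CellTiter-Glo viability after 6 days of compound exposure at up to 10 or 50 μM.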

[2] = tested on: HCT116 WT cells; assay: HCT116 WT cell proliferation / viability (CellTiter-Glo, 6 days); type: cell-based; settings: Homo sapiens, HCT-116, 144 h, read-out: HCT-116 WT IC50
Summary of the method: as §1

[3] = HCT116 MTAP null cells, 6 days, CellTiter-Glo
[4] = HCT116 WT cells, 6 days, CellTiter-Glo

IC50 [1, 3]	IC50 [2, 4]	SMILES	IC50 [1]	IC50 [2]
0.005 µM	0.114 µM	Cn1ncc2c(N)nc3cc(F)c(C(=O)N(Cc4ccc(C(F)(F)F)cn4)C4CCC4)cc3c21 [Example 807, 4-amino-N-cyclobutyl-7-fluoro-1-methyl-N-((5-(trifluoromethyl)-2-pyridinyl)methyl)-1H-pyrazolo[4,3-c]quinoline-8-carboxamide]		
0.052 µM	3.13 µM	Cn1ncc2c3cc(C(=O)N(Cc4ccc(C(F)(F)F)cn4)C4CC4)c(Cl)cc3nc(N)c21 [Example 808, 4-amino-7-chloro-N-cyclopropyl-3-methyl-N-((5-(trifluoromethyl)-2-pyridinyl)methyl)-3H-pyrazolo[3,4-c]quinoline-8-carboxamide]		
0.031 µM	1.79 µM	Cn1ncc2c(N)nc3cc(F)c(C(=O)N(Cc4ncc(C(F)(F)F)cc4F)C4CC4)cc3c21 [Example 809, 4-amino-N-cyclopropyl-7-fluoro-N-((3-fluoro-5-(trifluoromethyl)-2-pyridinyl)methyl)-1-methyl-1H-pyrazolo[4,3-c]quinoline-8-carboxamide]		
0.226 µM	13.8 µM	CN(Cc1ccc(C(F)(F)F)cn1)C(=O)c1cc2c(cc1C(F)(F)F)nc(N)c1cnn(C)c12 [Example 810, 4-amino-N,1-dimethyl-7-(trifluoromethyl)-N-((5-(trifluoromethyl)-2-pyridinyl)methyl)-1H-pyrazolo[4,3-c]quinoline-8-carboxamide]		
0.645 µM	> 50 µM	CN(Cc1ccc(C(F)(F)F)nn1)C(=O)c1cc2c(cc1C(F)(F)F)nc(N)c1cnn(C)c12 [Example 811, 4-amino-N,1-dimethyl-7-(trifluoromethyl)-N-((6-(trifluoromethyl)-3-pyridazinyl)methyl)-1H-pyrazolo[4,3-c]quinoline-8-carboxamide]		
0.237 µM	14.1 µM	Cn1ncc2c(N)nc3cc(C(F)(F)F)c(C(=O)N(Cc4ccc(C(F)(F)F)cn4)C4CC4)cc3c21 [Example 812, 4-amino-N-cyclopropyl-1-methyl-7-(trifluoromethyl)-N-((5-(trifluoromethyl)-2-pyridinyl)methyl)-1H-pyrazolo[4,3-c]quinoline-8-carboxamide]		
0.676 µM	29.3 µM	Cn1ncc2c(N)nc3cc(C(F)(F)F)c(C(=O)N(Cc4ccc(C(F)(F)F)nn4)C4CC4)cc3c21 [Example 813, 4-amino-N-cyclopropyl-1-methyl-7-(trifluoromethyl)-N-((6-(trifluoromethyl)-3-pyridazinyl)methyl)-1H-pyrazolo[4,3-c]quinoline-8-carboxamide]		
0.044 µM	1.17 µM	C[C@H](C1CC1)N(Cc1ccc(C(F)(F)F)nn1)C(=O)c1cc2c3c(c(N)nc2cc1F)COC3 [Example 814, 4-amino-N-((1R)-1-cyclopropylethyl)-7-fluoro-N-((6-(trifluoromethyl)-3-pyridazinyl)methyl)-1,3-dihydrofuro[3,4-c]quinoline-8-carboxamide]		
0.018 µM	0.301 µM	C[C@@H](C1CC1)N(Cc1ccc(C(F)(F)F)nn1)C(=O)c1cc2c3c(c(N)nc2cc1F)COC3 [Example 815, 4-amino-N-((1S)-1-cyclopropylethyl)-7-fluoro-N-((6-(trifluoromethyl)-3-pyridazinyl)methyl)-1,3-dihydrofuro[3,4-c]quinoline-8-carboxamide]		
0.078 µM	2.49 µM	Nc1nc2cc(F)c(C(=O)N(Cc3ccc(OCC(F)(F)F)nn3)CC3CC3)cc2c2c1COC2 [Example 816, 4-amino-N-(cyclopropylmethyl)-7-fluoro-N-((6-(2,2,2-trifluoroethoxy)-3-pyridazinyl)methyl)-1,3-dihydrofuro[3,4-c]quinoline-8-carboxamide]		
0.028 µM	0.689 µM	Cn1ncc2c3cc(C(=O)N(Cc4ccc(OCC(F)(F)F)nn4)CC4CC4)c(F)cc3nc(N)c21 [Example 817, 4-amino-N-(cyclopropylmethyl)-7-fluoro-3-methyl-N-((6-(2,2,2-trifluoroethoxy)-3-pyridazinyl)methyl)-3H-pyrazolo[3,4-c]quinoline-8-carboxamide]		
0.007 µM	0.161 µM	C[C@H]1OCc2c1c(N)nc1cc(F)c(C(=O)N(Cc3ccc(OCC(F)(F)F)nn3)CC3CC3)cc21 [Example 818, (3R)-4-amino-N-(cyclopropylmethyl)-7-fluoro-3-methyl-N-((6-(2,2,2-trifluoroethoxy)-3-pyridazinyl)methyl)-1,3-dihydrofuro[3,4-c]quinoline-8-carboxamide]		
0.062 µM	1.34 µM	Cn1cc(N(Cc2ccc(C(F)(F)F)cc2)C(=O)c2cc3c4c(c(N)nc3cn2)COC4)cn1 [Example 882, 4-amino-N-(1-methyl-1H-pyrazol-4-yl)-N-(4-(trifluoromethyl)benzyl)-1,3-dihydrofuro[3,4-c][1,7]naphthyridine-8-carboxamide 2,2,2-trifluoroacetate]		
0.02 µM	0.514 µM	Nc1nc2ccc(C(=O)N(Cc3ccc(C(F)(F)F)cn3)c3cccc(F)c3)cc2c2c1COC2 [Example 883, 4-amino-N-(3-fluorophenyl)-N-((5-(trifluoromethyl)-2-pyridinyl)methyl)-1,3-dihydrofuro[3,4-c]quinoline-8-carboxamide]		
0.027 µM	0.733 µM	Cn1cc(N(Cc2ccc(C(F)(F)F)cn2)C(=O)c2ccc3nc(N)c4c(c3c2)COC4)cn1 [Example 884, 4-amino-N-(1-methyl-1H-pyrazol-4-yl)-N-((5-(trifluoromethyl)-2-pyridinyl)methyl)-1,3-dihydrofuro[3,4-c]quinoline-8-carboxamide]		
0.025 µM	0.596 µM	Cn1cc(N(Cc2ccc(C(F)(F)F)cn2)C(=O)c2cc3c4c(c(N)nc3cn2)COC4)cn1 [Example 885, 4-amino-N-(1-methyl-1H-pyrazol-4-yl)-N-((5-(trifluoromethyl)-2-pyridinyl)methyl)-1,3-dihydrofuro[3,4-c][1,7]naphthyridine-8-carboxamide]		
1.69 µM	> 10 µM	Cn1cc(N(Cc2ccc(C(F)(F)F)cn2)C(=O)c2cnc3nc(N)c4c(c3c2)COC4)cn1 [Example 886, 4-amino-N-(1-methyl-1H-pyrazol-4-yl)-N-((5-(trifluoromethyl)-2-pyridinyl)methyl)-1,3-dihydrofuro[3,4-c][1,8]naphthyridine-8-carboxamide]		
0.025 µM	0.496 µM	C[C@H](c1ncccn1)N(Cc1ccc(C(F)(F)F)cn1)C(=O)c1ccc2nc(N)c3c(c2c1)CCOC3 [Example 887, 5-amino-N-[(1R)-1-pyrimidin-2-ylethyl]-N-[[5-(trifluoromethyl)-2-pyridyl]methyl]-2,4-dihydro-1H-pyrano[3,4-c]quinoline-9-carboxamide]		
0.021 µM	0.231 µM	C[C@H](c1ncccn1)N(Cc1ccc(C(F)(F)F)cn1)C(=O)c1ccc2nc(N)c3c(c2c1)OCC3 [Example 888, 4-amino-N-[(1R)-1-pyrimidin-2-ylethyl]-N-[[5-(trifluoromethyl)-2-pyridyl]methyl]-2,3-dihydrofuro[3,2-c]quinoline-8-carboxamide]		
		CC(C)CN(Cc1ccc(C(F)(F)F)cn1)C(=O)c1ccc2nc(N)c3c(c2c1)COC3(C)C [Example 889]	0.202 µM	4.74 µM
0.014 µM	0.156 µM	CC1OCc2c1c(N)nc1ccc(C(=O)N(Cc3ccc(C(F)(F)F)cn3)Cc3ncccc3F)cc21 (stereo not shown) [Example 890, 4-amino-N-((3-fluoropyridin-2-yl)methyl)-3-methyl-N-((5-(trifluoromethyl)pyridin-2-yl)methyl)-1,3-dihydrofuro[3,4-c]quinoline-8-carboxamide]		
0.073 µM	1.9 µM	CC1OCc2c1c(N)nc1ccc(C(=O)N(Cc3ccc(C#N)cn3)C(C)C3CCOCC3)cc21 (stereo not shown) [Example 892, 4-amino-N-((5-cyanopyridin-2-yl)methyl)-3-methyl-N-(1-(tetrahydro-2H-pyran-4-yl)ethyl)-1,3-dihydrofuro[3,4-c]quinoline-8-carboxamide]		
0.051 µM	0.55 µM	CC1OCc2c1c(N)nc1ccc(C(=O)N(Cc3ccc(C(F)(F)F)cn3)CC3CCOCC3)cc21 (stereo not shown) [Example 895, 4-amino-3-methyl-N-((tetrahydro-2H-pyran-4-yl)methyl)-N-((5-(trifluoromethyl)pyridin-2-yl)methyl)-1,3-dihydrofuro[3,4-c]quinoline-8-carboxamide]		
0.088 µM	1.8 µM	CC1OCc2c1c(N)nc1ccc(C(=O)N(Cc3ccc(C#N)cn3)CC3CCOCC3)cc21 (stereo not shown) [Example 896, 4-amino-N-((5-cyanopyridin-2-yl)methyl)-3-methyl-N-((tetrahydro-2H-pyran-4-yl)methyl)-1,3-dihydrofuro[3,4-c]quinoline-8-carboxamide]		
0.024 µM	0.11 µM	CC1OCc2c1c(N)nc1ccc(C(=O)N(Cc3ccc(C(F)(F)F)cn3)C3CCCC3C#N)cc21 (stereo not shown) [Example 897, 4-amino-N-(2-cyanocyclopentyl)-3-methyl-N-((5-(trifluoromethyl)pyridin-2-yl)methyl)-1,3-dihydrofuro[3,4-c]quinoline-8-carboxamide]		
0.052 µM	0.29 µM	CC1OCc2c1c(N)nc1ccc(C(=O)N(Cc3ccc(C#N)cn3)C3CCCC3C#N)cc21 (stereo not shown) [Example 898, 4-amino-N-(2-cyanocyclopentyl)-N-((5-cyanopyridin-2-yl)methyl)-3-methyl-1,3-dihydrofuro[3,4-c]quinoline-8-carboxamide]		
